Experimental data: article PMC10610545, “Preclinical Evaluation of an Imidazole-Linked Heterocycle for Alzheimer’s Disease” (Pharmaceutics, 2023)
Where a name gives a salt, the structure may show the parent alone.

Key:
[1] = molecular target: α2-adrenergic receptor (α2-AR); experiment: Competition binding against [3H]RX821002, membranes from post-mortem human frontal cortex
Description: (§1) The inhibition constant (Ki) for each compound was obtained and is expressed as the corresponding pKi. The selectivity for these two receptors was expressed by the I2/α2 index, calculated as the antilogarithm of the […] between pKi values for I2-IR and pKi values for α2-AR.
(§2) Preparation of cellular membranes.
(§3) Human brain samples were obtained at autopsy in the Basque Institute of Legal Medicine, Bilbao, Spain. Samples from the prefrontal cortex (Brodmann’s area 9) were dissected at the time of autopsy and immediately stored at -70 °C until assay. The study was developed in compliance with policies of research and ethical review boards for postmortem brain studies.
(§4) To obtain cellular membranes (P2 fraction) the different samples were homogenized using an ultraturrax in 10 volumes of homogenization buffer (0.25 M sucrose, 5 mM Tris–HCl, pH 7.4).
(§5) The crude homogenate was centrifuged for 5 min at 1000 g (4 °C) and the supernatant was centrifuged again for 10 min at 40,000 g (4 °C). The resultant pellet was washed twice in 5 volumes of homogenization buffer and recentrifuged in similar conditions. Protein content was measured according to the method of Bradford using BSA as standard.
(§6) Competition Binding Assays.
(§7) The pharmacological activity of the compounds was evaluated through competition binding studies against the I2-IR selective radioligand [3H]2-BFI or the α2-adrenergic receptor selective radioligand [3H]RX821002. Specific binding was measured in 0.25 mL aliquots (50 mM Tris-HCl, pH 7.5) containing 100 µg of membranes, which were incubated in 96-well plates either with […]
(§8) Incubations were terminated by separating free ligand from bound ligand by rapid filtration […]
(§9) counted for radioactivity by liquid scintillation spectrometry using a MicroBeta TriLux counter (PerkinElmer). Specific binding was determined and plotted as a function of the compound concentration. Nonspecific binding was determined in the presence of idazoxan (10–5 M), a compound with well stablished affinity for I2-IR and α2-adrenergic receptors, in [3H]2-BFI and [3H]RX821002 assays. To obtain the inhibition constant (Ki) analyses of competition experiments were performed by nonlinear regression using the GraphPad Prism program. Ki values were normalized to pKi values. I2-IR/α2 selectivity index was calculated as the antilogarithm of the difference between pKi values for I2-IR and pKi values for α2-ARs.

[2] = tested on: imidazoline I2 receptors (I2-IR); experiment: Competition binding against [3H]2-BFI, membranes from post-mortem human frontal cortex; conditions: for Selectivity I2/α2: antilog (pKi I2-IR − pKi α2-AR); for [3H]-2-BFI I2 pKi (One Site): monophasic fit; for [3H]-2-BFI I2 pKi (Two Sites), high affinity (pKiH) / [3H]-2-BFI I2 pKi (Two Sites), low affinity (pKiL): two-site model; for [3H]-2-BFI I2 pKi (Two Sites), high affinity (pKiH): high-affinity site; for [3H]-2-BFI I2 pKi (Two Sites), low affinity (pKiL): low-affinity site
Description: as §1, §2, §3, §4, §5, §6, §7, §8, §9

[3] = PAMPA-BBB permeation assay; format: in vitro ADME, porcine; conditions: pig, PBS/EtOH (70:30), mean ± SD, read-out: Permeability Pe
Procedure: In vitro Blood-Brain Barrier Permeation Assay
To evaluate the brain penetration of the different compounds, a parallel artificial membrane permeation assay for blood-brain barrier was used, following the method described by Di et al.1 The in vitro permeability (Pe) of fourteen commercial drugs (see Table S1) through lipid extract of porcine brain membrane together with the test compounds were determined. Commercial drugs and assayed compounds were tested using a mixture of PBS:ETOH (70:30). Assay validation was made by comparing the experimental permeability with the reported values of the commercial drugs by bibliography and lineal correlation between experimental and reported permeability of the fourteen commercial drugs using the parallel artificial membrane permeation […]
From this equation and taking into account the limits established by Di et al. for BBB permeation, we established the ranges of permeability […]
predictive penetration in the CNS used as references.
1 Di, L.; Kerns, E. H.; Fan, K.; McConnell, O. J.; and Carter, G. T. High throughput artificial membrane permeability assay for blood-brain barrier.

Structure (SMILES) | [3H]-RX821002 α2 pKi [1] | Selectivity I2/α2 [2] | Ki ([2]; corresponds to pKiH, read-out: Ki of the high-affinity I2 site) | [3H]-2-BFI I2 pKi (One Site) [2] | [3H]-2-BFI I2 pKi (Two Sites), high affinity (pKiH) [2] | [3H]-2-BFI I2 pKi (Two Sites), low affinity (pKiL) [2] | pKi (exp) α2 ([1]; Table S3, new ligands and known I2-IR ligands) | pKi (exp) I2 ([2]; Table S2, new ligands and known I2-IR ligands) | Papp [3]
c1ccc2oc(C3=NCCN3)cc2c1 [Compound 2-BFI, 2-(2-benzofuranyl)-2-imidazoline] | 4.58 ± 0.22 | 5370 | 1 nM | 8.31 ± 0.13 | 9.08 ± 0.22 | 7.15 ± 0.31 |  |  | 
C(=C\c1ccccc1)/C1=NCCN1 [Tracizoline, reference compound] |  |  |  |  |  |  | 4.330 | 7.580 | 
Cl.c1ccc2nc(-c3ncc[nH]3)ccc2c1 [LSL42, 2-(Quinoline-2-yl)-1H-imidazole hydrochloride] | 5.32 ± 0.24 |  |  | 5.24 ± 0.12 |  |  |  |  | 5.8 ± 0.2 ×10⁻⁶ cm/s
Cl.c1ccc2nc(-n3ccnc3)ccc2c1 [LSL35, 1-(Quinoline-2-yl)-1H-imidazole hydrochloride] | 5.24 ± 0.26 |  |  | 5.49 ± 0.14 |  |  |  |  | 16.2 ± 0.9 ×10⁻⁶ cm/s
c1ccc2c(c1)OCC(C1=NCCN1)O2 (stereo not drawn) [Idazoxan] | 7.92 ± 0.07 |  |  | 7.41 ± 0.63 | 7.87 ± 0.74 | 5.76 ± 0.57 |  |  | 
c1ccc(-c2ncc3cc(-n4ccnc4)ccc3n2)cc1 [CR4056] |  | 1995 |  | 5.95 ± 0.11 |  |  |  |  | 
c1ccc2c(c1)OCC(c1ncc[nH]1)O2 (stereo not drawn) [LSL39, 2-(2,3-Dihydrobenzo[1, 4]dioxin-2-yl)-1H-imidazole hydrochloride] | 3.97 ± 0.25 |  |  | 6.10 ± 0.25 |  |  |  |  | 
Cl.c1ccc2[nH]c(-n3ccnc3)cc2c1 [LSL29, 2-Imidazol-1-yl-1H-indole hydrochloride] | 4.99 ± 0.18 |  |  | 4.57 ± 0.23 | 8.54 ± 0.71 | 4.09 ± 0.22 |  |  | 10.8 ± 0.4 ×10⁻⁶ cm/s
